# Entries after “also recorded” stand apart in the source; their conditions may differ.
# Columns and labels:
# RBP4-TTR interaction = RBP4-TTR interaction (Homo sapiens (Human), UniProt P02753); experiment: HTRF RBP4-TTR interaction assay; assay type: biochemical; details: 1 μM retinol; read-out: RBP4-TTR HTRF IC50
# Procedure: HTRF Cryptate labeling kit from CisBio (Cisbio, cat #62EUSPEA, Bedfored, MA) was used to label TTR with Eu^3+ Cryptate. The assay was performed in a final assay volume of 16 μl in the buffer that contained 10 mM Tris-HCl pH 7.5, 1 mM DTT, 0.05% NP-40, 0.05% Prionex, 6% glycerol, and 400 mM KF. […] All of the reactions were performed under dim red light in the dark. The plates were read in the SpectraMax M5e Multimode Plate Reader (Molecular Devices, Sunnyvale, CA) after the overnight incubation at 4° C. […] The HTRF signal was expressed as the ratio of fluorescence intensity: Flu668/Flu620×10,000.
# RBP4 = RBP4 (Homo sapiens (Human), UniProt P02753); experiment: RBP4 SPA binding assay (displacement of 3H-retinol); details: read-out: RBP4 SPA IC50
# Kinetic solubility assay = assay type: physicochemical; details: PBS (pH 7.4)
# Procedure: Kinetic aqueous solubility determination for compound (±)-44 in PBS (pH 7.4) was conducted by Eurofins using UV detection (230 nm). […] In addition, chromatographic purity (%) was defined as the peak area of the principal peak relative to the total integrated peak area in the HPLC chromatogram of the calibration standard. A chromatogram of the calibration standard of each test compound, along with a UV/VIS spectrum with labeled absorbance maxima, was generated.
# [1] = Metabolic stability and clearance in mouse liver microsomes; assay type: in vitro ADME; details: 30 minute incubation
# Procedure: The results of metabolic stability determinations for novel compounds and testosterone (positive control) were conducted in the presence of human, rat, mouse, and monkey liver microsomes. Values shown are percent of parent remaining after a 30 minute incubation. All measurements were done in duplicate. Assay results for testosterone were within an acceptable range.
# Mixed-gender human liver microsomes (Lot #1710084), male Sprague-Dawley rat liver microsomes (Lot #1610290), male CD-1 mouse liver microsomes (Lot #1710069), and male Cynomolgous liver microsomes (Lot #1510193) were purchased from XenoTech. The reaction mixture, minus NADPH, was prepared as described below. The test article was added into the reaction mixture at a final concentration of 1 μM. The control compound, testosterone, was run simultaneously with the test article in a separate reaction. An aliquot of the reaction mixture (without cofactor) was equilibrated in a shaking water bath at 37° C. for 3 minutes. The reaction was initiated by the addition of cofactor, and the mixture was incubated in a shaking water bath at 37° C. Aliquots (100 μL) were withdrawn at 0, 10, 20, 30, and 60. […] Half-lives were calculated using GraphPad software, fitting to a single-phase exponential decay equation.
# [2] = Plasma protein binding, rat plasma; assay type: in vitro ADME; details: Sprague Dawley, pH 7.4, read-out: % PPB, R (converted)
# Procedure: (§1) Plasma protein binding (PPB) for compounds determination for compound (±)-44 in PBS (pH 7.4) was conducted by Eurofins using equilibrium dialysis of plasma with HPLC-UV/Vis detection.
# (§2) The peak areas of the test compound in the buffer and test samples were used to calculate percent binding and recovery according to the following formulas:
# (§3) • Areap=Peak area of analyte in protein matrix • Areab=Peak area of analyte in buffer • Areac=Peak area of analyte in control sample
# [3] = Plasma protein binding, mouse plasma; assay type: in vitro ADME; details: CD-1, pH 7.4, read-out: % PPB (converted)
# Procedure: as §1, §2, §3
# TTR = TTR (Homo sapiens (Human), UniProt P02766); experiment: Acid-induced TTR aggregation assay; assay type: biochemical; details: 50 μM compound, pH 4.0, 72 h, 37° C.
# Procedure: FIG. 6. […] After incubation in the presence of 50 μM Tafamidis, 50 μM Benzbromarone and 50 μM (±)-44, samples were crosslinked and subjected to SDS-PAGE followed by western blotting with TTR antibodies. The representative blot of at least three independent experiments is presented. (B, C), Bar graphs represent pixel volumes of TTR high molecular weight aggregates (B) and monomers (C). The vertical axes represent the ratio of pixel volume means±S.D. of the scanned bands on the immunoblots in arbitrary units. Statistical significance was determined by one-way ANOVA with Holm-Sidak post hoc test; *, p≤0.05; **, p≤0.01; ***, p≤0.001; ****, p≤0.0001 compare to TTR aggregation (pH 4.0)+DMSO group, #, p≤0.05; ##, p≤0.01; ###, p≤0.001; ####, p≤0.0001 compare to TTR without aggregation (pH 7.5) group.
# The ability of test compounds to prevent TTR aggregation was evaluated under the acidic conditions that favor TTR aggregation and fibril formation. […] At the end of the incubation, 3.5 μl 500 mM sodium phosphate (Sigma #S5136) buffer pH=8.0 was added to each sample for neutralization and 0.6 μl 5% CHAPS (Sigma #C5070) as a detergent to prevent reassociation of protein. The cross-linking was performed by adding 1.5 μl 5% glutaraldehyde solution (Sigma #G6257). After 4 min, the reaction was stopped by the addition of 2.5 μl freshly made 5% NaBH4. Samples were subjected to TTR western blotting with prealbumin antibodies (1:500; Dako #A0002). Band intensity for TTR monomer and TTR aggregates was quantified from scanned images of the blots.
# hERG = hERG (Homo sapiens (Human), UniProt Q12809); experiment: CiPA hERG QPatch Assay; assay type: cell-based; details: five-point concentration-response, n = 2
# Sequence of hERG (Q12809 whole entry): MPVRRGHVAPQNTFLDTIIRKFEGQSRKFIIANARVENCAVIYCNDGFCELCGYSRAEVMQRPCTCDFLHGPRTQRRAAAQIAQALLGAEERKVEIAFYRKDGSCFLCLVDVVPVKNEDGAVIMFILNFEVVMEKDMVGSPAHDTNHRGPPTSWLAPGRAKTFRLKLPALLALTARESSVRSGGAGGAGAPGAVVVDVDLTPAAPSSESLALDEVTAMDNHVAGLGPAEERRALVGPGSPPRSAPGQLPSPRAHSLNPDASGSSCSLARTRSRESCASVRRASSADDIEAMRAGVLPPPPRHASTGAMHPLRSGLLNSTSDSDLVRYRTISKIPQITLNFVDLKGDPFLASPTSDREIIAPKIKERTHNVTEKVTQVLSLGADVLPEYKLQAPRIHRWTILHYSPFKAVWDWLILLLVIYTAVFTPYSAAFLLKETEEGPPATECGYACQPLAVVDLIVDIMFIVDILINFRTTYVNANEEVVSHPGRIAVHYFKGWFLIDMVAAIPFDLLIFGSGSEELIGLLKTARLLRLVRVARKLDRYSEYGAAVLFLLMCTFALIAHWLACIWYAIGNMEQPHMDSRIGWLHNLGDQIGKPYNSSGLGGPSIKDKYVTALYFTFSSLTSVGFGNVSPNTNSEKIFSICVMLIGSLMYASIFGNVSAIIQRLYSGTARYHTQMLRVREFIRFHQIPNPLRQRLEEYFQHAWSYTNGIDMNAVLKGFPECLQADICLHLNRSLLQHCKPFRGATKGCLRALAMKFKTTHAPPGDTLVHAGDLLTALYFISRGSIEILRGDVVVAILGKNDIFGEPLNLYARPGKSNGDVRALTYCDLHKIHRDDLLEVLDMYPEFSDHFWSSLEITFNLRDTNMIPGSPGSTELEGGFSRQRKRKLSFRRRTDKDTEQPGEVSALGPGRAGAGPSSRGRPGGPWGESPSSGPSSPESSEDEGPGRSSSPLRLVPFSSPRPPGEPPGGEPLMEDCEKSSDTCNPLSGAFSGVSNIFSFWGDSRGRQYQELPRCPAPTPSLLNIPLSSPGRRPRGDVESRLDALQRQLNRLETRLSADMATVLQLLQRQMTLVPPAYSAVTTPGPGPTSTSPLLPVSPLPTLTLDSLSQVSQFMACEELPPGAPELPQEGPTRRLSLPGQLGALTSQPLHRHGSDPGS
compound,measurement,setting,value
"Cc1cc(C(=O)O)nc(N2CCC(COc3ccccc3C(F)(F)F)C2)n1 (racemic) [Compound (±)-44, (±)-6-Methyl-2-(3-((2-(trifluoromethyl)phenoxy)methyl)pyrrolidin-1-yl)pyrimidine-4-carboxylic Acid]",IC50,RBP4-TTR interaction,250 nM
same,IC50,RBP4,80 nM
same,solubility kinetic,Kinetic solubility assay,187.4 µM
same,"Liver Microsomal Stability (% remaining at 30 min), MLM",[1],95%
same,fraction unbound,[2],0.04
same,fraction unbound,[3],0.04
same,formation of high molecular weight TTR species,TTR,reduces the formation of high molecular weight TTR forms; also recorded: significantly reduced the formation of high molecular weight TTR species
same,TTR monomer band intensities,TTR; vs DMSO,Significant increase
same,fold reduction in formation of high molecular weight aggregates,TTR; vs DMSO,4.7 fold
same,IC50,hERG,> 30000 nM

# — US20230348415A1, “BISPECIFIC ANTAGONISTS OF RETINOL-BINDING PROTEIN 4 THAT STABILIZE TRANSTHYRETIN TETRAMERS, THEIR PREPARATION, AND USE IN THE TREATMENT OF COMMON AGE-RELATED COMORBIDITIES” (The Trustees of Columbia University in the City of New York, priority 2020, published 2023)
